Measurements from ChEMBL document CHEMBL3046182, “Development of a rapid resistance monitoring bioassay for codling moth larvae” (2012).
Converted amounts (≈) assume the structure as drawn.

Columns and labels:
Format in all cases: functional
Cydia pomonella [1] = experiment: Insecticidal activity against po dosed fourth-instar larvae of Cydia pomonella (codling moth) lab-s measured after 4 days
Cydia pomonella [2] = experiment: Insecticidal activity against po dosed Cydia pomonella (codling moth) lab-s neonate measured after 4 days
Cydia pomonella [3] = experiment: Insecticidal activity against po dosed 20 day-old larvae of Cydia pomonella (codling moth) reared on apple assessed as mortality measured after 4 days
Cydia pomonella [4] = experiment: Insecticidal activity against po dosed 15 day-old larvae of Cydia pomonella (codling moth) reared on apple assessed as mortality measured after 4 days
Cydia pomonella [5] = experiment: Insecticidal activity against po dosed 10 day-old larvae of Cydia pomonella (codling moth) Owensby reared on apple assessed as mortality measured after 4 days
Cydia pomonella [6] = experiment: Insecticidal activity against po dosed 10 day-old larvae of Cydia pomonella (codling moth) Gilbert reared on apple assessed as mortality measured after 4 days
Cydia pomonella [7] = experiment: Insecticidal activity against po dosed 11 day-old larvae of spinetoram-selected Cydia pomonella (codling moth) reared on apple assessed as mortality measured after 4 days
Cydia pomonella [8] = experiment: Insecticidal activity against po dosed 10 day-old larvae of Chlorantraniliprole-selected Cydia pomonella (codling moth) reared on apple assessed as mortality measured after 4 days
Cydia pomonella [9] = experiment: Insecticidal activity against po dosed 15 day-old larvae of Cydia pomonella (codling moth) lab-s reared on apple assessed as mortality measured after 4 days
Cydia pomonella [10] = experiment: Insecticidal activity against po dosed 10 day-old larvae of Cydia pomonella (codling moth) lab-s reared on apple assessed as mortality measured after 4 days
Cydia pomonella [11] = experiment: Insecticidal activity against po dosed 10 day-old larvae of Cydia pomonella (codling moth) lab-s measured after 4 days
Cydia pomonella [12] = experiment: Resistant ratio of LC50 for fourth-instar larvae of Cydia pomonella (codling moth) Holt to fourth-instar larvae of Cydia pomonella (codling moth) Glibert
Cydia pomonella [13] = experiment: Resistant ratio of LC50 for Cydia pomonella (codling moth) Holt neonate to Cydia pomonella (codling moth) Glibert neonate
Cydia pomonella [14] = experiment: Resistant ratio of LC50 for fourth-instar larvae of Cydia pomonella (codling moth) lab-s to fourth-instar larvae of Cydia pomonella (codling moth) Glibert
Cydia pomonella [15] = experiment: Resistant ratio of LC50 for Cydia pomonella (codling moth) lab-s neonate to Cydia pomonella (codling moth) Glibert neonate
Cydia pomonella [16] = experiment: Insecticidal activity against po dosed fourth-instar larvae of Cydia pomonella (codling moth) Gilbert measured after 4 days
Cydia pomonella [17] = experiment: Insecticidal activity against po dosed Cydia pomonella (codling moth) Gilbert neonate measured after 4 days
Cydia pomonella [18] = experiment: Insecticidal activity against po dosed fourth-instar larvae of Cydia pomonella (codling moth) Holt measured after 4 days
Cydia pomonella [19] = experiment: Insecticidal activity against po dosed Cydia pomonella (codling moth) Holt neonate measured after 4 days
Cydia pomonella [20] = experiment: Insecticidal activity against po dosed fourth-instar larvae of Cydia pomonella (codling moth) Clear Creek abandoned measured after 4 days
Cydia pomonella [21] = experiment: Insecticidal activity against po dosed Cydia pomonella (codling moth) Clear Creek abandoned neonate measured after 4 days
Cydia pomonella [22] = experiment: Insecticidal activity against fourth-instar larvae of Cydia pomonella (codling moth) lab-s compound applied topically measured after 4 days; conditions: topical, 96 h
Cydia pomonella [23] = experiment: Insecticidal activity against Cydia pomonella (codling moth) lab-s neonate compound applied topically measured after 4 days; conditions: topical, 96 h

SMILES: O=C(NC(=O)c1c(F)cccc1F)Nc1ccc(OC(F)(F)C(F)OC(F)(F)F)c(Cl)c1 (configuration not stated) [NOVALURON]
- LC50 (Cydia pomonella [1]): 1.16 µg/mL (≈ 2.35 µM)
- LC50 (Cydia pomonella [2]): 1.08 µg/mL (≈ 2.19 µM)

SMILES: COc1cccc(C(=O)NN(C(=O)c2cc(C)cc(C)c2)C(C)(C)C)c1C [METHOXYFENOZIDE]
- mortality (Cydia pomonella [3]): 50%
- mortality (Cydia pomonella [4]): 55.1%
- mortality (Cydia pomonella [5]): 31.3%
- mortality (Cydia pomonella [6]): 93.6%
- mortality (Cydia pomonella [7]): 83.3%
- mortality (Cydia pomonella [8]): 100%
- mortality (Cydia pomonella [9]): 98.4%
- mortality (Cydia pomonella [10]): 99.2%
- LC95 (Cydia pomonella [11]): 10 µg/mL (≈ 27.1 µM)
- RatioLC50 (Cydia pomonella [12]): 16.7
- RatioLC50 (Cydia pomonella [13]): 24
- RatioLC50 (Cydia pomonella [14]): 6.6
- RatioLC50 (Cydia pomonella [15]): 8
- LC50 (Cydia pomonella [16]): 15.2 µg/mL (≈ 41.3 µM)
- LC99 (Cydia pomonella [16]): 202 µg/mL
- LC50 (Cydia pomonella [17]): 9.5 µg/mL (≈ 25.8 µM)
- LC99 (Cydia pomonella [17]): 389.4 µg/mL
- LC50 (Cydia pomonella [18]): 38.7 µg/mL (≈ 105 µM)
- LC99 (Cydia pomonella [18]): 5061.9 µg/mL
- LC50 (Cydia pomonella [19]): 28.5 µg/mL (≈ 77.3 µM)
- LC99 (Cydia pomonella [19]): 5320.8 µg/mL
- LC50 (Cydia pomonella [20]): 1.35 µg/mL (≈ 3.66 µM)
- LC99 (Cydia pomonella [20]): 28.38 µg/mL
- LC50 (Cydia pomonella [21]): 95 µg/mL (≈ 258 µM)
- LC99 (Cydia pomonella [21]): 14.57 µg/mL
- LC50 (Cydia pomonella [1]): 2.3 µg/mL (≈ 6.24 µM)
- LC99 (Cydia pomonella [1]): 18.27 µg/mL
- LC50 (Cydia pomonella [2]): 1.2 µg/mL (≈ 3.26 µM)
- LC99 (Cydia pomonella [2]): 14.15 µg/mL

SMILES: CCO[C@@H]1[C@@H](OC)[C@H](C)O[C@@H](O[C@@H]2C[C@H]3CC[C@@H]4[C@@H](C=C5C(=O)[C@H](C)[C@@H](O[C@H]6CC[C@H](N(C)C)[C@@H](C)O6)CCC[C@H](CC)OC(=O)C[C@H]54)[C@@H]3C2)[C@@H]1OC.CCO[C@@H]1[C@@H](OC)[C@H](C)O[C@@H](O[C@H]2C[C@H]3[C@@H]4C=C5C(=O)[C@H](C)[C@@H](O[C@H]6CC[C@H](N(C)C)[C@@H](C)O6)CCC[C@H](CC)OC(=O)C[C@H]5[C@@H]4C=C(C)[C@@H]3C2)[C@@H]1OC
- LC50 (Cydia pomonella [1]): 0.16 µg/mL
- LC50 (Cydia pomonella [2]): 0.09 µg/mL

SMILES: CNC(=O)c1cc(Cl)cc(C)c1NC(=O)c1cc(Br)nn1-c1ncccc1Cl [CHLORANTRANILIPROLE]
- LC50 (Cydia pomonella [1]): 0.19 µg/mL (≈ 0.393 µM)
- LC50 (Cydia pomonella [2]): 0.2 µg/mL (≈ 0.414 µM)

SMILES: C/C(=N\C#N)N(C)Cc1ccc(Cl)nc1 [ACETAMIPRID]
- LC50 (Cydia pomonella [22]): 1.12 µg/mL (≈ 5.03 µM)
- LC50 (Cydia pomonella [23]): 0.26 µg/mL (≈ 1.17 µM)
